Some results are limits rather than exact numbers.

In experiment [1] the target is High affinity nerve growth factor receptor (Homo sapiens, UniProt P04629). The experiment can be described thus: Inhibition of TRKA (unknown origin) using […] peptide as substrate incubated for 1 hr in presence of ATP by FRET based Z'-lyte assay.
The target of experiment [2] is NT-3 growth factor receptor (Homo sapiens, UniProt Q16288). The experiment can be described thus: Inhibition of TRKC (unknown origin) using […] peptide as substrate incubated for 1 hr in presence of ATP by FRET based Z'-lyte assay.
Chain of NT-3 growth factor receptor (Q16288 whole entry): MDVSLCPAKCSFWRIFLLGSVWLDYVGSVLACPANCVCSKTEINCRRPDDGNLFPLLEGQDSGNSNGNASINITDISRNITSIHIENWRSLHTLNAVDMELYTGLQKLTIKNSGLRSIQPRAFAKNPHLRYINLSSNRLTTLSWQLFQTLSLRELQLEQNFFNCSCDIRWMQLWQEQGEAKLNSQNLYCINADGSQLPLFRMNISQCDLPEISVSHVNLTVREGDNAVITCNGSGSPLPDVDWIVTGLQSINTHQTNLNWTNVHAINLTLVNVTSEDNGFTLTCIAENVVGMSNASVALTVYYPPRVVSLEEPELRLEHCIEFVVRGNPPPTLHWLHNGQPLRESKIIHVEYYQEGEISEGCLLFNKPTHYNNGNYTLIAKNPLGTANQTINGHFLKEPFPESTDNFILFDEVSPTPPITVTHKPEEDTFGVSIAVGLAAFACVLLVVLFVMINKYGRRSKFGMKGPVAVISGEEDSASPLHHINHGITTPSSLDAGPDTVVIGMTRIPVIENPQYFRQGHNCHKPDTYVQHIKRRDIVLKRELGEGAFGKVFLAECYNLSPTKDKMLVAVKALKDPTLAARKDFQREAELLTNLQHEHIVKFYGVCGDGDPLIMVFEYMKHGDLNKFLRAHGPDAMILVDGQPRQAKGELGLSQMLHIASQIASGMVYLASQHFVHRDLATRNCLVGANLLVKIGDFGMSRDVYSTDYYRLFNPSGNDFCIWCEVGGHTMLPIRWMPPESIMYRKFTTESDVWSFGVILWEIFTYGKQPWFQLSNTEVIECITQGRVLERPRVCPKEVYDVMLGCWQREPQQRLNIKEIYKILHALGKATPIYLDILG
In experiment [3] the target is High affinity nerve growth factor receptor (Homo sapiens, UniProt P04629, G667C). The experiment can be described thus: Inhibition of TRKA G667C mutant (unknown origin) using […] peptide as substrate incubated for 1 hr in presence of ATP by FRET based Z'-lyte assay.
Chain of High affinity nerve growth factor receptor (Homo sapiens, UniProt P04629, G667C) (P04629 33-796 G667C limits assumed): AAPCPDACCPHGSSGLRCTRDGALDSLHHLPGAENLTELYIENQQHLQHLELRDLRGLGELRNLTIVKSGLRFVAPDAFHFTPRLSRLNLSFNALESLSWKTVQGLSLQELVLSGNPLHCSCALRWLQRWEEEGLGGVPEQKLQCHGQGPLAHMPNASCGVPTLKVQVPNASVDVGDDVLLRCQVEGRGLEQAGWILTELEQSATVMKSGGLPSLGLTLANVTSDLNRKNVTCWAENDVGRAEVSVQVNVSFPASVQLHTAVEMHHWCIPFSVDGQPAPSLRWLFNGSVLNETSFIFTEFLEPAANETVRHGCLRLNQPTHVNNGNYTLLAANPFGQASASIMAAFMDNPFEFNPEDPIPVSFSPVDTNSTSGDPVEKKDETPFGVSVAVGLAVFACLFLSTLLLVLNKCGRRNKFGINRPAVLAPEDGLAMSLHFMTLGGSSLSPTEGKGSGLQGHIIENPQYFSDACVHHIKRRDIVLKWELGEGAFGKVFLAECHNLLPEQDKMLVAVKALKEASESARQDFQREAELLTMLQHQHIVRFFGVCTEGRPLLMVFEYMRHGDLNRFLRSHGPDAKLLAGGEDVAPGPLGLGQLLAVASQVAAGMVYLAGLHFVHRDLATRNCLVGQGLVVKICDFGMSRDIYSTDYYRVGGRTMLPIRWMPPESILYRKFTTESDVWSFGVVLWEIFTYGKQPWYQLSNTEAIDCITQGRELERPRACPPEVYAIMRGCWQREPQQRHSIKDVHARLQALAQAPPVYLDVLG
Experiment [4] addresses BDNF/NT-3 growth factors receptor (Homo sapiens, UniProt Q16620). The experiment can be described thus: Inhibition of TRKB (unknown origin) using […] peptide as substrate incubated for 1 hr in presence of ATP by FRET based Z'-lyte assay.
In experiment [5] the test system is BaF3. The experiment can be described thus: cells. The settings on record: Mus musculus, BaF3, 72 h.
Description: Antiproliferative activity against mouse BaF3 cells harbouring CD74-TRKA assessed as inhibition of cell growth incubated for 72 hrs by CCK8 assay
Experiment [6] deals with BaF3. The experiment can be described thus: cells. The following applies: Mus musculus, BaF3, 72 h. This is another data set of the same source.
Description: Antiproliferative activity against mouse BaF3 cells harbouring ETV6-TRKB assessed as inhibition of cell growth incubated for 72 hrs by CCK8 assay
Experiment [7] concerns BaF3. The experiment can be described thus: cells. The following applies: Mus musculus, BaF3, 72 h. This is another data set of the same source.
Description: Antiproliferative activity against mouse BaF3 cells harbouring ETV6-TRKC assessed as inhibition of cell growth incubated for 72 hrs by CCK8 assay
In experiment [8] the test system is BaF3. Description: cells. The settings on record: Mus musculus, BaF3, 72 h. This is another data set of the same source.
In experiment [9] the test system is BaF3. The experiment can be described thus: cells. The following applies: Mus musculus, BaF3, 72 h. The source holds these as a separate data set.
Description: Antiproliferative activity against mouse BaF3 cells assessed as inhibition of cell growth incubated for 72 hrs by CCK8 assay
Experiment [10] relates to BaF3. Description: cells. The following applies: Mus musculus, BaF3, 72 h. The source holds these as a separate data set.
Description: Antiproliferative activity against mouse BaF3 cells harbouring CD74-TRKA G623R mutant assessed as inhibition of cell growth incubated for 72 hrs by CCK8 assay
Experiment [11] concerns BaF3. The experiment can be described thus: cells. The following applies: Mus musculus, BaF3, 72 h. The source holds these as a separate data set.
Description: Antiproliferative activity against mouse BaF3 cells harbouring CD74-TRKA G595R mutant assessed as inhibition of cell growth incubated for 72 hrs by CCK8 assay
Experiment [12] deals with BaF3. Description: Induction of apoptosis in mouse BaF3 cells harboring CD74-TRKA G667C mutant assessed as viable cells at 50 nM incubated 48 hrs by Annexin V-FITC/7-AAD staining based flow cytometric analysis (reference value: 89.60%). The format is functional. The following applies: read-out: Activity. Background: A flow cytometer gives signals particle by particle.
The subject of experiment [13] is BaF3. The experiment can be described thus: Induction of apoptosis in mouse BaF3 cells harboring CD74-TRKA G667C mutant assessed as viable cells at 10 nM incubated 48 hrs by Annexin V-FITC/7-AAD staining based flow cytometric analysis (reference value: 89.60%). The format is functional. The settings on record: read-out: Activity.
The test system of experiment [14] is BaF3. The experiment can be described thus: Induction of apoptosis in mouse BaF3 cells harboring CD74-TRKA G667C mutant assessed as viable cells at 2 nM incubated 48 hrs by Annexin V-FITC/7-AAD staining based flow cytometric analysis (reference value: 89.60%). The experiment is classed as functional. The following applies: read-out: Activity.
In experiment [15] the test system is BaF3. Description: Induction of apoptosis in mouse BaF3 cells harboring CD74-TRKA G667C mutant assessed as viable cells at 0.4 nM incubated 48 hrs by Annexin V-FITC/7-AAD staining based flow cytometric analysis (reference value: 89.60%). The experiment is classed as functional. The settings on record: read-out: Activity.
Experiment [16] has as its system BaF3. The experiment can be described thus: Induction of apoptosis in mouse BaF3 cells harboring CD74-TRKA assessed as viable cells at 500 nM incubated 48 hrs by Annexin V-FITC/7-AAD staining based flow cytometric analysis (reference value: 89.30%). The following applies: read-out: Activity. The experiment is classed as functional.
The subject of experiment [17] is BaF3. Description: Induction of apoptosis in mouse BaF3 cells harboring CD74-TRKA assessed as viable cells at 100 nM incubated 48 hrs by Annexin V-FITC/7-AAD staining based flow cytometric analysis (reference value: 89.30%). The format is functional. The settings on record: read-out: Activity.
For experiment [18], the system named is BaF3. The experiment can be described thus: Induction of apoptosis in mouse BaF3 cells harboring CD74-TRKA assessed as viable cells at 20 nM incubated 48 hrs by Annexin V-FITC/7-AAD staining based flow cytometric analysis (reference value: 89.30%). The settings on record: read-out: Activity. The format is functional.
Experiment [19] concerns BaF3. Description: Induction of apoptosis in mouse BaF3 cells harboring CD74-TRKA assessed as viable cells at 4 nM incubated 48 hrs by Annexin V-FITC/7-AAD staining based flow cytometric analysis (reference value: 89.30%). The experiment is classed as functional. The settings on record: read-out: Activity.
The target in experiment [20] is Proto-oncogene tyrosine-protein kinase receptor Ret (Homo sapiens, UniProt P07949). Description: Inhibition of RET (unknown origin).
The target of experiment [21] is Vascular endothelial growth factor receptor 2 (Homo sapiens, UniProt P35968). Description: Inhibition of VEGFR2 (unknown origin).
Chain of Vascular endothelial growth factor receptor 2 (P35968 whole entry): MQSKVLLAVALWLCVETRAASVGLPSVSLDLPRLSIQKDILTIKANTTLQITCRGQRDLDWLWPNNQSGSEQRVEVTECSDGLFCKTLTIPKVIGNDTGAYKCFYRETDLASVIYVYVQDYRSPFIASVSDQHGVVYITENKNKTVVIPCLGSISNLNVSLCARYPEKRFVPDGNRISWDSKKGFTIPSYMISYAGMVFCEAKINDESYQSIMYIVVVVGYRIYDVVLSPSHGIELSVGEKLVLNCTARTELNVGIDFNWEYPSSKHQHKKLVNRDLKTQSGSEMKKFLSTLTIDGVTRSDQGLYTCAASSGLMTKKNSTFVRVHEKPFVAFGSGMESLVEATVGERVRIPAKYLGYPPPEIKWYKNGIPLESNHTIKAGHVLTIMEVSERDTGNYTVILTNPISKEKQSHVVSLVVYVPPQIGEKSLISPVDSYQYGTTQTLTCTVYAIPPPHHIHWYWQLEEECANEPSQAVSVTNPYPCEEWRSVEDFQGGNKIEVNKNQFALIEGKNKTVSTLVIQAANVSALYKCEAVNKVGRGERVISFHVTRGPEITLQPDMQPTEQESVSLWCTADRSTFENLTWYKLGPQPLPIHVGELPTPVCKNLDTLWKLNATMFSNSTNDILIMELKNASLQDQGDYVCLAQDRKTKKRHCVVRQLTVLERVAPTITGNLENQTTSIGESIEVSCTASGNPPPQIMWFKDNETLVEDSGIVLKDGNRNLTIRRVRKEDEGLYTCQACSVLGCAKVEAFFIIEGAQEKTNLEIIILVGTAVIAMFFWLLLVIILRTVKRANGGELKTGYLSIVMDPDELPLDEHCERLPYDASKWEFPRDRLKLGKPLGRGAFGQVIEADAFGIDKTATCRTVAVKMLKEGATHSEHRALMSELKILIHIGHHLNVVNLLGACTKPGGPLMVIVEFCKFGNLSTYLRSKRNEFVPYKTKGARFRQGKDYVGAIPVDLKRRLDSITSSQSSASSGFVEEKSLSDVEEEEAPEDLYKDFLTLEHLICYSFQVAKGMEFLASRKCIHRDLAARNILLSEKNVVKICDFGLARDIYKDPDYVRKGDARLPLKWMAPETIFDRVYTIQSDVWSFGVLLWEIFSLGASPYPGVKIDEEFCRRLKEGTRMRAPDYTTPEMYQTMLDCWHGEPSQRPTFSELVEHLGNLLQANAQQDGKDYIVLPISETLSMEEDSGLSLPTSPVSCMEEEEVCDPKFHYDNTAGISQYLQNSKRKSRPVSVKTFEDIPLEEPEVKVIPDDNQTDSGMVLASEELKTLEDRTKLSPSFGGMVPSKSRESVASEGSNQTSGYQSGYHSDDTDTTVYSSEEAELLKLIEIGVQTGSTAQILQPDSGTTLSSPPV
In experiment [22] the target is T1, Receptor-type tyrosine-protein kinase FLT3 (Homo sapiens, UniProt P36888).
T1 sequence (P36888 whole entry): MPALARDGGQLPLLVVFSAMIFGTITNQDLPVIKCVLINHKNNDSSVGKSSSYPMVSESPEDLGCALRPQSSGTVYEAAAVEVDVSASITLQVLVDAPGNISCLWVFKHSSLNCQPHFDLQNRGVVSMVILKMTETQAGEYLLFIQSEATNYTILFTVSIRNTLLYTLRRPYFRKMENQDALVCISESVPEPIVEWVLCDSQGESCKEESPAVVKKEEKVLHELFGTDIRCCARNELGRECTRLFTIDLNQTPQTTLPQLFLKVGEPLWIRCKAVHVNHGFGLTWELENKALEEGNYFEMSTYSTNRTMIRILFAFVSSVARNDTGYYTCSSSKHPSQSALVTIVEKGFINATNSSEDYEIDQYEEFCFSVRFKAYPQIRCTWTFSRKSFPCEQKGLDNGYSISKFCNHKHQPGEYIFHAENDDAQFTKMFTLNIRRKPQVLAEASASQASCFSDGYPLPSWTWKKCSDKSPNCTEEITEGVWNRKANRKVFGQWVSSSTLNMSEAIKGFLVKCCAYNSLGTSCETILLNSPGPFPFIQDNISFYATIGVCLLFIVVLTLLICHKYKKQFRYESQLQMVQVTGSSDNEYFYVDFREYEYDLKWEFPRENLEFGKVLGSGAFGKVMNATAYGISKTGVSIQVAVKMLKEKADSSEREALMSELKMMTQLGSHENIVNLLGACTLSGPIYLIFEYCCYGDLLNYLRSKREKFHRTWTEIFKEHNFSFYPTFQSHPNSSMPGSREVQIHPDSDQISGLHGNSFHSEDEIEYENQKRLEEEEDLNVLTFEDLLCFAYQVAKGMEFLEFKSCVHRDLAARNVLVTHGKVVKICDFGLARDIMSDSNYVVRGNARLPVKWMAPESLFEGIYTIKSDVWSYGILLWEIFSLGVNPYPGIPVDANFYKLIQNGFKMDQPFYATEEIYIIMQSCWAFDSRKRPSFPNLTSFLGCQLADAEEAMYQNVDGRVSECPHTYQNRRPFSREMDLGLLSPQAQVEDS
Description: Inhibition of FLT3 (unknown origin).

Chain of BDNF/NT-3 growth factors receptor (Q16620 whole entry): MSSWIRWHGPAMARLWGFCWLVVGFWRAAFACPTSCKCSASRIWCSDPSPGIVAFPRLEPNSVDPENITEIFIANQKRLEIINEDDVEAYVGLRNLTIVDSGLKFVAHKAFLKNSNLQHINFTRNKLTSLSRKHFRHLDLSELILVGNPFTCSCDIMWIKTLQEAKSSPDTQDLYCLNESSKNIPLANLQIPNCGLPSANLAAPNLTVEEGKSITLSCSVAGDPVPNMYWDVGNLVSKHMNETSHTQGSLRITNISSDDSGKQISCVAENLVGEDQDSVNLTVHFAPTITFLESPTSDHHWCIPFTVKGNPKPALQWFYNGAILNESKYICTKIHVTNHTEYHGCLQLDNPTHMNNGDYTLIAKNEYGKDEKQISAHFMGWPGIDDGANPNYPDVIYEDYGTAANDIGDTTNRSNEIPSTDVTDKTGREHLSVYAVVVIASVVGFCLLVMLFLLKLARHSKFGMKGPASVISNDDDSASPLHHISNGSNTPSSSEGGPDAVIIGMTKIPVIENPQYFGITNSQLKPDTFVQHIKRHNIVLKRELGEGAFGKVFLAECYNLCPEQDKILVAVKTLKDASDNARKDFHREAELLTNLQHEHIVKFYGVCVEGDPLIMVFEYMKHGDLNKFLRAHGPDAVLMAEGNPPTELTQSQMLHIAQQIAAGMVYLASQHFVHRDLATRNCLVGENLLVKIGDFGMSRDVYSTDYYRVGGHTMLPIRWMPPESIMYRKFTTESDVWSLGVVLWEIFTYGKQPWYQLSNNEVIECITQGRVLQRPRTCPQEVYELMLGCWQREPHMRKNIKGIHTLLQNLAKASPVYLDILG
Chain of High affinity nerve growth factor receptor (Homo sapiens, UniProt P04629) (P04629 whole entry): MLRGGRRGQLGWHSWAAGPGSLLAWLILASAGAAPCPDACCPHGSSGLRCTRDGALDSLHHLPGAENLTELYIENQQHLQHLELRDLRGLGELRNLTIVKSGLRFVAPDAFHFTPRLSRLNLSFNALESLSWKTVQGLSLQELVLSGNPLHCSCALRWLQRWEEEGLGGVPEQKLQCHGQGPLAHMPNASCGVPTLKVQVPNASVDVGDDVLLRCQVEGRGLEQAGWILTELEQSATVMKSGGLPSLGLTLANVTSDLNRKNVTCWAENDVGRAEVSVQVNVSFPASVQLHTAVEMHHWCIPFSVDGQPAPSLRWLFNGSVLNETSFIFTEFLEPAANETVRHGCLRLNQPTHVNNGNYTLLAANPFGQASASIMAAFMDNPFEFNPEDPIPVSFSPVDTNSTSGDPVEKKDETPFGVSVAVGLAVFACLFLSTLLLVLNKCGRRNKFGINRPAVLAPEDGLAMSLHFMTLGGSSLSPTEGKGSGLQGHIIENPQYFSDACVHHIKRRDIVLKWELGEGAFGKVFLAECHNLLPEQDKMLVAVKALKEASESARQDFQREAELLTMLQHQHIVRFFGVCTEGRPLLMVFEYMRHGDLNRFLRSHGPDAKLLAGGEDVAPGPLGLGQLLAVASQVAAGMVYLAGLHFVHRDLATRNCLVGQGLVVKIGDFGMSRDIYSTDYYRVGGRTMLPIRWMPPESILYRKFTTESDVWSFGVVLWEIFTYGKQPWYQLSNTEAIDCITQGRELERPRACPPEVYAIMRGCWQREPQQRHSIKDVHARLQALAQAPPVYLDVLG

For `Cc1conc1NC(=O)N[C@@H]1CCN(c2ccc3ncc(-c4ccccn4)n3n2)C1`, the IC50 – broadly, the point on the concentration scale where inhibition reaches its midpoint – in experiment [1] worked out at 68.7 nM; in [2], 36.8 nM; in [3] it was 241 nM.
In the case of `Cc1cn(-c2cc(NC(=O)[C@@H]3CCN(c4ccc5ncc(-c6ccccn6)n5n4)C3)cc(C(F)(F)F)c2)cn1`, the 50% inhibitory concentration (IC50) is 13.1 nM in [1]; 10.1 nM in experiment [2]; 5.9 nM in [4]; 25.2 nM in [3]; 29.1 nM in the experiment on BaF3 [5]; 25.3 nM in the experiment with BaF3 [6]. Besides, the IC50 in the experiment with BaF3 [7] came to 15.8 nM; in the experiment on BaF3 [8], 1.8 nM.
Take `CN1CCN(Cc2cc(NC(=O)[C@H]3CCN(c4ccc5ncc(-c6ccccn6)n5n4)C3)cc(C(F)(F)F)c2)CC1`: the concentration for half-maximal inhibition (IC50) in experiment [1] was determined as 35.2 nM; in experiment [2] it was 40.2 nM; in [4] it was 50.8 nM; in experiment [3], 98.1 nM; with BaF3 [5], 261 nM; in the experiment with BaF3 [6] it was 215 nM. Also, the IC50 in the experiment on BaF3 [7] turned out to be 141 nM; in the experiment on BaF3 [8], 49.3 nM.
With `CN1CCN(Cc2ccc(NC(=O)[C@@H]3CCN(c4ccc5nccn5n4)C3)cc2C(F)(F)F)CC1`, the IC50 in experiment [1] is 245 nM; in [4], above 1000 nM; in [3] it was 938 nM.
Turning to `C[C@@H]1CCc2ncc(F)cc2[C@H]2CCCN2c2ccn3ncc(c3n2)C(=O)N1` [SELITRECTINIB], the values for the concentration for half-maximal inhibition (IC50) in the experiment with BaF3 [5], with BaF3 [6] and in the experiment with BaF3 [7] were 1.7 nM, 5.2 nM and 1.2 nM, respectively.
Take `CN1CCN(Cc2ccc(NC(=O)[C@@H]3CCN(c4ccc5ncc(-c6cnn(CCO)c6)n5n4)C3)cc2C(F)(F)F)CC1`: the figures for the half-maximal inhibitory concentration (IC50) in [1], in [4] and in experiment [3] were 8.7 nM, 21.6 nM and 52.5 nM, respectively.
Consider `CN1CCN(Cc2ccc(NC(=O)[C@@H]3CCN(c4ccc5ncc(-c6ccc(N)nc6)n5n4)C3)cc2C(F)(F)F)CC1`, for which the half-inhibitory concentration (IC50) in experiment [1] worked out at 6 nM; in experiment [4], 9.6 nM; in experiment [3] it was 16.7 nM.
As for `O=C(Nc1ccc(Cl)c(C(F)(F)F)c1)N[C@@H]1CCN(c2ccc3ncc(-c4ccccn4)n3n2)C1`, the IC50 was found to be 45.7 nM in experiment [1]; 17 nM in experiment [2]; 81.6 nM in experiment [4]; 15.1 nM in experiment [3]; 695 nM in the experiment on BaF3 [5]; 508 nM in the experiment on BaF3 [6]. For the same compound, the IC50 in the experiment with BaF3 [7] was determined as 225 nM; in the experiment on BaF3 [8] it was 4.4 nM.
For `CN1CCN(Cc2ccc(NC(=O)[C@@H]3CCN(c4ccc5ncc(-c6cn[nH]c6)n5n4)C3)cc2C(F)(F)F)CC1`, the IC50 came out at 5.8 nM in [1]; 7.8 nM in experiment [2]; 13.8 nM in [4]; 33.8 nM in experiment [3]; 296 nM in the experiment on BaF3 [5]; 522 nM in the experiment on BaF3 [6]. The 50% inhibitory concentration (IC50) was 195 nM with BaF3 [7] and 27.3 nM in the experiment on BaF3 [8].
As for `O=C(Nc1cnn2ccc(N3CCC[C@@H]3c3cc(F)ccc3F)nc12)N1CC[C@H](O)C1` [LAROTRECTINIB], the IC50 was above 2000 nM in the experiment on BaF3 [9]; above 1000 nM in the experiment on BaF3 [10]; above 1000 nM with BaF3 [11]; 9.3 nM in the experiment on BaF3 [5]; 29.7 nM in the experiment with BaF3 [6]; 15.4 nM in the experiment with BaF3 [7]. Moreover, in the experiment on BaF3 [8], half-maximal inhibition (IC50) required 284 nM.
With `CN1CCN(Cc2ccc(NC(=O)[C@@H]3CCN(c4ccc5ncc(-c6cccnc6)n5n4)C3)cc2C(F)(F)F)CC1`, the IC50 is 8 nM in experiment [2] and 11.1 nM in [4].
`CN1CCN(Cc2cc(NC(=O)[C@@H]3CCN(c4ccc5ncc(-c6ccccn6)n5n4)C3)cc(C(F)(F)F)c2)CC1`: the half-maximal inhibitory concentration (IC50) came to 5.8 nM in experiment [1]; 8.1 nM in experiment [2]; 5.1 nM in experiment [4]; 16.5 nM in [3]; 61.5 nM in the experiment on BaF3 [5]; 51.8 nM in the experiment with BaF3 [6]. Also, the figures for the IC50 in the experiment on BaF3 [7] and in the experiment with BaF3 [8] were 26.4 nM and 9.3 nM, respectively.
For the compound `CN1CCN(Cc2ccc(NC(=O)[C@@H]3CCN(c4ccc5ncc(-c6cnn(C7CCOCC7)c6)n5n4)C3)cc2C(F)(F)F)CC1`, the IC50 came out at 13.2 nM in experiment [1], 26.8 nM in experiment [4] and 35.5 nM in experiment [3].
`CN1CCN(Cc2ccc(NC(=O)[C@@H]3CCN(c4ccc5ncc(-c6ccccn6)n5n4)C3)cc2C(F)(F)F)CC1`: in the experiment on BaF3 [12], the viability at 0.05 µM was 43%. Also, the viability at 0.01 µM with BaF3 [13] was 87.6%. Also, the viability at 0.002 µM with BaF3 [14] was determined as 89.8%. The viability at 0.0004 µM in the experiment on BaF3 [15] is 89.1%. Further, the viability at 0.5 µM with BaF3 [16] amounted to 60.8%. The viability at 0.1 µM with BaF3 [17] was determined as 78.1%. Further, the viability at 0.02 µM with BaF3 [18] stood at 87.8%. The viability at 0.004 µM with BaF3 [19] is 59.9%. Besides, the IC50 in experiment [20] stood at 9.9 nM; in experiment [21], 71.1 nM; in [22], 1.3 nM; in experiment [1], 3.3 nM; in [2], 4.3 nM; in experiment [3], 9.4 nM.

(Values after ChEMBL document CHEMBL5385866, “Switch type I to type II TRK inhibitors for combating clinical resistance induced by xDFG mutation for cancer therapy” (Eur J Med Chem, 2023).)
